Like-named read-outs stand apart in the source and are kept apart here.
Columns and labels:
[1] = test system: histamine-induced dyspnea; assay: Bronchodilator (in vivo) Guinea Pig Dyspnea; conditions: oral, one hour before histamine challenge
Experimental: Unanesthetized guinea pigs (250-350 g), fasted overnight were placed in individual closed aerosol chambers which were connected to a Monoghan Ultrasonic nebulizer. The nebulizer can deliver an ultrasonic fog of uniform particles in a range of 1-8 microns. A 0.1% solution of histamine is aerosolized into the chambers causing the guinea pigs to develop dyspnea. The test drug was given orally one hour before the histamine challenge and the onset of dyspnea was recorded. Saline control animals developed dyspnea within 90-120 seconds of aerosol exposure. […] The data was expressed as the number tested over the number survived. The model was sensitive to bronchodilator and H1 antihistamine activity. Further information relating this test can be obtained from the following two publications which are hereby incorporated by reference: Dungan, K. W. and Lish, P. M. J Allergy 32:139-151 (1961). and Lish, P. M., Robbins, S. I. and Petres E. L. J. Pharmacol. Exp. Therap. 153 L 1538 (1966 ).

[2] = test system: LOX human melanoma cell adhesion to human fibronectin; assay: LOX melanoma cell adhesion to fibronectin; assay type: cell-based; conditions: for IC50 / inhibition at 10 µM / inhibition at 50 µM: Homo sapiens, LOX; for IC50: read-out: LOX FN IC50; for inhibition at 10 µM: read-out: % Inhibition at 10 μM; for inhibition at 50 µM: read-out: % Inhibition at 50 μM
Experimental: (§1) Adhesion assays were run essentially as described previously (Pai et al., J. Biomed. Res. 2: 53, 1992). 96-well plates were coated with human fibronectin (140 ng/well), human vitronectin (75 ng/well), human collagen I (100 ng/well), human collagen IV (100 ng/well), human fibrinogen (1 μg/well), murine laminin (600 ng/well), or polylysine, and incubated overnight in a humidified 37° C. incubator. Excess fibronectin or other substrate was then removed and 0.2 ml of 2 mg/ml bovine serum albumin (BSA)in Dulbecco's phosphate-buffered saline (DPBS) was added to each well, incubated for 2 hours at 37° C., and removed. LOX human melanoma cells, M27 murine lung carcinoma cells or B16F10 mouse melanoma cells were detached from tissue culture flasks with RPMI medium containing 0.2M urea and 10 mM EDTA, and 0.18 ml of cells were added to each well to a final cell concentration of 1×10^5 cells/well. For inhibition studies 20 μl of 10× compound was added to the wells prior to cell addition. Cells were allowed to adhere for 1 hour at 37° C. The wells were then gently washed twice with 0.2 ml DPBS. The fluorescent dye calcein AM (Molecular Probes, Eugene Oreg.) in DPBS (0.1 ml of 1 μM) was added to each well, and the plates were incubated for 1 hour at room temperature. Adherent cells were quantitated by reading the fluorescence on a Cytofluor 2300 fluorescent plate reader (Millipore) at 485 nm excitation and 530 nm emission.
LOX FN-IC50 value for inhibition of adhesion of LOX human melanoma cells to fibronectin coated on a plastic surface.

[3] = Calcein cytotoxicity assay; assay type: cell-based; conditions: human, lox melanoma cells, calcein AM assay; for CC50 at 2 h: read-out: 2 Hr Tox LD50
Experimental: LOX human melanoma cells were detached from tissue culture flasks with RPMI medium containing 0.2M urea and 10 mM EDTA, and 0.18 ml of cells were added to each well to a final cell concentration of 5×10^4 cells/well. 20 μl of 10× compound was added to the wells prior to cell addition. Cells were incubated with the compound at 37° C. for 1 hour or 5 hour as indicated. Calcein AM in DPBS (0.02 ml of 5 μM) was added to each well, and the plates were incubated for an additional 1 hour at room temperature. Viable cells were quantitated by reading the fluorescence on a Cytofluor 2300 fluorescent plate reader at 485 nm excitation and 530 nm emission.

[4] = test system: LOX human melanoma cell adhesion to polylysine; assay: LOX melanoma cell adhesion to polylysine; assay type: cell-based; conditions: read-out: Poly Lys IC50
Experimental: as §1

ELAM-1 = ELAM-1 (Homo sapiens, UniProt P16581); assay: cell-based
Experimental: Cell adhesion to ELAM-1 was measured essentially as described previously (Pal et al., J. Biomed. Res. 2: 53, 1992). Undifferentiated HL-60 leukemia cells were prelabelled for 30 minutes with 1 μM calcein AM in DPBS without calcium or magnesium, and the cells were washed twice with the same medium before addition to 96-well plates containing monolayers of mouse L cells (5×10^4 cells/well) transfected with cDNA for the adhesion molecule ELAM-1. Adhesion was allowed to proceed for 30 minutes at room temperature before washing and quantitation of the remaining fluorescent HL-60 cells as described above.
ELAM-1 (E-selectin) is a member of the selectin class of adhesion molecules.

pulmonary resistance = assay: Pulmonary Resistance in the Anesthetized Rat; assay type: in vivo; conditions: 0.5 mpk, i.v., mean of 5 animals, % decrease in pre-drug baseline resistance; for inhibition in vivo at 0.5 mg/kg: Rattus norvegicus, iv, read-out: Pulmonary Resistance in Rats, % Inhibition
Experimental: Rats (400-500 g) anesthetized with dialurethane were surgically prepared with tracheal and esophageal catheters. These catheters were connected to pressure transducers for recording of air flow, tracheal and esophageal pressures. These pressures formed the basis for measurement of pulmonary resistance. Inhibition of pulmonary resistance is a reflection of bronchodilation.
All compounds were tested i. v. in 5 separate animals. All data are expressed in % decrease in the pre-drug baseline resistance and each number given is the mean of the 5 animals tested.
The model is sensitive to bronchodilator activity.
Further information relating this test can be obtained from the following publications which are hereby incorporated by reference: Comroe et al, J. Appl. Physio. 4:439-44 (1959); Dungan et al J. Pharmacol. Exp. Therap. 164:290-301(1968); and Mead, J. et al. J. Appl. Physio. 5:779-796 (1953).

[5] = test system: acetic acid-induced writhing; assay: Acetic Acid Writhing Test in Mice; assay type: in vivo, mouse; conditions: for ED50: Mus musculus, po, read-out: WRITH ED50
Description: The blockade of writhing induced by the intraperitoneal injection of acetic acid is an established experimental animal model for the screening of antinociceptive drugs (drugs which prevent the appreciation or transmission of pain sensations).
The procedure for the Acetic Acid Writhing Test in Mice is set forth in Hendershot et al, J. Pharmacol. Exp. Therap. 125:237, (1959); Koster et al., Fed. Proc. 18:412, (1959); and international application PCT/US91/06705, filed 20 Sep. 1991, which are hereby incorporated by reference.
The results for this test are given below in the units of mg/kg which is also abbreviated in this specification as mpk. The results for this test are given as effective doses (ED50 's).

TBZ-induced ptosis = assay: Effects on tetrabenazine (TBZ)-induced ptosis in mice; assay type: in vivo, mouse; conditions: for ED50: Mus musculus, po; for TBZ ED50: p.o.
Description: Clinically active antidepressant drugs are known to block TBZ-induced ptosis in mice (See Psychosomatic Medicine, Nodine and Moyer, Eds. Lea and Febiger, Philadelphia, 1962, pp 683-90, which is hereby incorporated by reference). Activity in this test is used to predict anti-depressant activity in man.
The procedure for the TBZ-Induced Ptosis Test in Mice is set forth in Psychosomatic Medicine, Nodine and Moyer, Eds. Lea and Febiger, which is hereby incorporated by reference and in PCT/US91/06705, filed 20 Sep. 1991, which is mentioned above.
(§2) The results for this test are given below as ED50 's in the units of mg/kg.
TBZ refers to the test of effects on tetrabenazine induced ptosis in mice, p.o.;

[6] = test system: muricidal (mouse-killing) behavior; assay: Effects on muricidal behavior in rats; assay type: in vivo, rat; conditions: for ED50: Rattus norvegicus, read-out: MUR ED50
Description: Blockade of muricidal (mouse-killing) behavior in rats is used as a measure of evaluating the anti-depressant activity of drugs, and the procedure for carrying out this test is set forth in Int. J. Neuro-pharmacal., 5, 405-411 (1966) are hereby incorporated by reference, and in PCT/US91/06705, filed 20 Sep. 1991, which is mentioned above.
as §2
MUR refers to the test on the effects on muricidal behavior in rats;

[7] = test system: discrete trial avoidance behavior; assay: Conditioned avoidance suppression in rats; assay type: in vivo, rat; conditions: for minimal effective dose: Rattus norvegicus, read-out: CAR minimum effective dose (MED)
Description: See Ann. N.Y. Acad. Sci. 66,740 (1957) which is hereby incorporated by reference. The procedure for carrying out this test is set forth in Int. J. Neuro-pharmacal., 5, 405-411 (1966) which is hereby incorporated by reference and in PCT/US91/06705, filed 20 Sep. 1991, which is mentioned above.
The results for this test are given below as minimum effecive doses (MED)in the units of mg/kg.
As used herein, CAR refers to the conditioned avoidance suppression test in rats;

metrazole = assay: Anti-metrazole test in mice; assay type: in vivo, mouse; conditions: for ED50: Mus musculus, read-out: MTZ ED50
Experimental: The anti-metrazole test in mice was carried out as described in Everett et al, J. Pharmacol. Exp. Therap. 81:402-407 (1944); which is hereby incorporated by reference.
(§3) The results for this test are given below as ED50's in the units of mg/kg.

methamphetamine toxicity = assay: Methamphetamine toxicity test in mice; assay type: in vivo; conditions: Mus musculus, read-out: METHA ED50
Experimental: The methamphetamine toxicity test in mice was carried out as described in Burn et al, Arch. Int. Pharmacodyn 113:290-295, (1958); and Coscia et al, Arzneim-Forsch (Drug Research) 25:1436-1442, (1975); which are hereby incorporated by reference.
as §3
METHA refers to the methamphetamine toxicity test in mice;

[8] = test system: B16-F10 murine melanoma metastasis; assay: In vivo experimental metastasis; parameters: species or system mouse (C57/black6); conditions: 250 mpk
Experimental: C57/black6 female mice (6-7 weeks old) were randomized before any treatment into groups of 5 mice per treatment. Compounds of the invention were prepared as a fine suspension in 25% β-cyclodextran and administered i.p. in a volume of 0.2 ml per animal. Two hours after drug (or vehicle) injection, 0.2 ml of DPBS containing 1×10^5 B-16 F10 murine melanoma cells were injected i.v. into the tail vein. After 14 days, animals were sacrificed and lungs were removed. Metastatic lung colonies were counted by visual inspection.
*Pretreatment Time is the time between i.p. drug injection and i.v. tumor

[9] = Cavia porcellus, 1 h, 50 mg/kg, read-out: DYSP survivors (converted)

Chain of ELAM-1 (P16581 22-610): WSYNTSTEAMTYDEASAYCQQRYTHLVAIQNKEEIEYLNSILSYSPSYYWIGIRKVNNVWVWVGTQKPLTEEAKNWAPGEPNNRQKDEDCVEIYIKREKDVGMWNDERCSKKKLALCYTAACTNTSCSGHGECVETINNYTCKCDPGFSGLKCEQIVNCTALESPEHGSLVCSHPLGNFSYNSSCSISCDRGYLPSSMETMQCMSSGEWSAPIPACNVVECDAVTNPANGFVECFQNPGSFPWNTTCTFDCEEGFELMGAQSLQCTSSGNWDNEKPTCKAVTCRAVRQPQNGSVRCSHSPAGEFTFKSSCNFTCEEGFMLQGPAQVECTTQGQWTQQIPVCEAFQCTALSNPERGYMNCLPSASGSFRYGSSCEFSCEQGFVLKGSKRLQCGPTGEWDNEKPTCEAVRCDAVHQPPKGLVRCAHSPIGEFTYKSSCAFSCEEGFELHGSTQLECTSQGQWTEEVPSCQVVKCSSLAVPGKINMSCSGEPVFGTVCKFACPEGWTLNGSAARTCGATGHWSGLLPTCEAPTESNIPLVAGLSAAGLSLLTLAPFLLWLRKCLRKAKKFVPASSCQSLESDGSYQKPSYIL

SMILES | CC50 at 2 h [3] [µM] | IC50 [4] [µM] | responders at 50 mg/kg [1, 9] [%] | inhibition in vivo at 0.5 mg/kg (pulmonary resistance) [%] | ED50 [5] [mg/kg] | ED50 (TBZ-induced ptosis) [mg/kg] | ED50 [6] [mg/kg] | minimal effective dose [7] [mg/kg] | ED50 (metrazole) [mg/kg] | inhibition at 10 µM ([2]; 10 μM) [%] | inhibition at 50 µM ([2]; 50 μM) [%] | further results
CN1C2CCC1C1C(=C(c3ccc(Cl)cc3)c3cc(F)ccc31)C2 (centres unmarked) [Compound A] | 17.4 | 11.8 | – | – | – | – | – | – | – | – | – | DYSP survivors ([1]; 100 mg/kg): 2/3; IC50 ([2]; 1 h): 4.8 µM; inhibition at 10 µM [2]: 81.1%; inhibition at 50 µM [2]: 101%; CC50 at 6 h ([3]; 6 hours, read-out: 6 Hr Tox LD50): 5.9 µM; IC50 (ELAM-1): 21.8 µM
COc1ccc(C2(O)c3ccccc3C3C4CCC(CC32)N4C)cc1 (centres unmarked) [PP] | – | – | 0 | 62 | > 30 | > 30 | > 10 | > 25 | > 30 | 4.9 | 21.9 | –
COc1ccc2c(c1)C(c1ccccc1)C1=C2C2CCC(C1)N2C (centres unmarked) [EE] | – | – | – | – | > 30 | > 30 | – | > 25 | > 30 | – | – | –
CN1C2CCC1C1c3ccccc3C(O)(c3ccccc3)C1C2 (centres unmarked) [AAA] | – | – | 0 | 35 | > 30 | > 30 | > 10 | – | > 30 | 5.2 | 5.8 | ED50 (methamphetamine toxicity): > 30 mg/kg
O=P1(N(CCCl)CCCl)NCCCO1 (centres unmarked) [Cytoxan, reference compound] | – | – | – | – | – | – | – | – | – | – | – | effectiveness as positive control [8]: showed similar effectiveness; % Inhibition of lung metastasis ([8]; pretreatment time 30 min): 77.8%; Number of Lung Melanoma Colonies ([8]; pretreatment time 30 min): 17.6 ± 4.2
CN1C2CCC1C1C(=C(c3ccccc3)c3ccccc31)C2 (centres unmarked) [T] | 135 | 115 | – | – | 17.3 | – | > 10 | > 25 | > 30 | – | – | DYSP survivors ([1]; 50 mg/kg): 0/3; DYSP survivors ([1]; 100 mg/kg): 2/3; Pulmonary Resistance in Rats, % Inhibition (pulmonary resistance): 46%; TBZ ED50 (TBZ-induced ptosis): 5.7 mg/kg; % Inhibition at 10 μM ([2]; 10 μM): 2.2%; % Inhibition at 50 μM ([2]; 50 μM): 89.3%; IC50 ([2]; Table 4, 1 hour adhesion): 19.5 µM
CN1C2CCC1C1c3ccccc3C(O)(c3ccc(F)cc3)C1C2 (centres unmarked) [SS] | > 250 | > 250 | 33.3 | 22 | > 30 | > 30 | > 10 | – | > 30 | 10.1 | 17.3 | responders at 100 mg/kg ([1]; Cavia porcellus, 1 h, 100 mg/kg, read-out: DYSP survivors (converted)): 100%; ED50 (methamphetamine toxicity): > 30 mg/kg; IC50 ([2]; Table 4, 1 hour adhesion): > 50 µM
CN1C2CCC1C1C(=C(c3ccccc3)c3ccccc31)C2 (centres unmarked) [U] | – | – | – | – | – | – | – | – | – | – | – | WRITH ED50 ([5]; p.o.): > 30 mg/kg; TBZ ED50 (TBZ-induced ptosis): 1.3 mg/kg; MUR ED50 [6]: 14.1 mg/kg; CAR minimum effective dose (MED) [7]: > 25 mg/kg; MTZ ED50 (metrazole): > 30 mg/kg; % Inhibition at 10 μM ([2]; 10 μM): -18.7%; % Inhibition at 50 μM ([2]; 50 μM): 21.0%
COc1ccc2c(c1)C(O)(c1ccccc1)C1CC3CCC(C21)N3C (centres unmarked) [DDD] | – | – | – | – | > 30 | > 30 | 3.8 | > 25 | > 30 | – | – | –

— patent publication US5461057A, “Hydro-ethano-indeno-pyridines” (priority 1994, dated 1995)
